According to US20110262359A1, “COMPOSITIONS COMPRISING ENZYME-CLEAVABLE PRODRUGS OF ACTIVE AGENTS AND INHIBITORS THEREOF” (priority 2010, published 2011):

Key:
[1] = Oral administration of Compound PC-4 and SBTI trypsin inhibitor to rats; assay type: in vivo; conditions: for Cmax of HM in rat plasma / Tmax of HM in rat plasma: PC-4 20 mg/kg
[2] = Oral administration of Compound PC-4 and Compound 101 trypsin inhibitor to rats; assay type: in vivo
[3] = biological target: T1, trypsin from bovine pancreas (Bos taurus, UniProt P00760); assay: In vitro trypsin conversion of prodrugs to hydromorphone and inhibition by trypsin inhibitor
T1 sequence (P00760 24-246): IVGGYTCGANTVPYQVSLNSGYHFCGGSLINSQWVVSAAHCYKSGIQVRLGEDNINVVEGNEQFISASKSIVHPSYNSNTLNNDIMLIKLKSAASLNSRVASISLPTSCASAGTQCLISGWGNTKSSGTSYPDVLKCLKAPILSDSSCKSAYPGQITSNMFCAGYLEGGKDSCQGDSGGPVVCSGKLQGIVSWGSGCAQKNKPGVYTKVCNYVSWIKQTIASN

[4] = In vivo tolerability of Compound KC-3 in rats (IV); conditions: rat IV
Experimental: Male naïve Sprague-Dawley rats, 4 per dose, were used in the study. Rats were weighed, and then placed under a heat lamp for 15-20 minutes to dilate the lateral tail veins. […] Before dosing, rats were placed in Broome restrainers and the drug was introduced into one of the tail veins using a syringe and needle. […] Blood samples were collected 5 minutes post-dose via the saphenous vein. The rats were observed up to 24 hours.

[5] = In vitro stability of Compound KC-3 to household chemicals and enzyme preparations; assay type: physicochemical; conditions: vodka, baking soda, WINDEX, vinegar at RT or 80° C.; GNC Super Digestive, tenderizer, subtilisn at RT; 1 or 24 hr
Experimental: Samples were incubated as described. Aliquots were removed at 1 hr and 24 hr and stabilized by adding each to a solution of 50% or 100% of 85% phosphoric acid solution to achieve a final pH of less than or equal to pH 4. The stabilized aliquots were then diluted 4- to 6-fold with water, vortex-mixed and applied to HPLC.

[6] = male, Sprague Dawley, rat, in vivo
[7] = biological target: T1, trypsin from bovine pancreas; assay: In vitro trypsin conversion of ketone-modified opioid prodrugs to oxycodone or hydrocodone and inhibition by Compound 109; assay type: biochemical; set-up: trypsin from bovine pancreas; purchased Sigma-Aldrich T8003; host or cells: bovine pancreas (tissue-derived); conditions: 241 BAEE U trypsin/mL; 0.761 mM prodrug; no inhibitor; 37° C.
[8] = Oral administration of Compound PC-3 and Compound 101 trypsin inhibitor to rats; assay type: in vivo
[9] = Oral administration of Compound PC-3 and SBTI trypsin inhibitor to rats; assay type: in vivo; conditions: for Cmax of hydromorphone in rat plasma / Tmax of hydromorphone in rat plasma: PC-3 20 mg/kg
[10] = Oral administration of Compound PC-1 and SBTI trypsin inhibitor to rats (hydromorphone in blood); conditions: for Maximum concentration (Cmax) of hydromorphone in rat blood: PC-1 20 mg/kg
[11] = Oral administration of Compound PC-1 and SBTI in the presence of ovalbumin to rats (hydromorphone in plasma); assay type: in vivo; conditions: for Maximum concentration (Cmax) of hydromorphone in rat plasma: PC-1 20 mg/kg
[12] = Oral administration of Compound PC-1 and BBSI inhibitor to rats; assay type: in vivo; conditions: PC-1 20 mg/kg
[13] = Oral administration of Compound PC-2 and SBTI trypsin inhibitor to rats; assay type: in vivo; conditions: for Cmax of hydromorphone in rat plasma: PC-2 20 mg/kg
trypsin = biological target: T2, trypsin (Bos taurus, UniProt P00760); assay: In vitro IC50 of trypsin inhibitors, modified trypsin assay; assay type: biochemical; conditions: trypsin inhibition
T2 sequence (P00760 24-246): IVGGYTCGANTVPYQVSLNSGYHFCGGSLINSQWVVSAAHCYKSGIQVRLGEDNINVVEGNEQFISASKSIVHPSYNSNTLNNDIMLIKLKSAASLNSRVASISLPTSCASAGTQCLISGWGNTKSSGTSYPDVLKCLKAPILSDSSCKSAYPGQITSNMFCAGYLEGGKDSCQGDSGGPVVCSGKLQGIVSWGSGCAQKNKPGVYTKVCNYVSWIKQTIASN

[14] = PC-4 20 mg/kg, Compound 101 10 mg/kg
[15] = PC-3 20 mg/kg, Compound 101 10 mg/kg

In the case of `CCN(CCNC(=O)[C@H](CCCNC(=N)N)NC(C)=O)C(=O)Oc1ccc2c3c1OC1C(=O)CCC4C(C2)N(C)CCC314` (some centres unmarked) [Compound PC-4], the “Cmax of HM in rat plasma” value ([1]; SBTI 500 mg/kg) is reported as 7.5 ± 2.1 ng/mL, the “Tmax of HM in rat plasma” value ([1]; SBTI 500 mg/kg) is reported as 6.5 h and the “Cmax of HM in rat plasma” value ([1]; no inhibitor, 7 rats) is reported as 7.7 ± 2.3 ng/mL. The “Tmax of HM in rat plasma” value ([1]; no inhibitor, 7 rats) was 2.3 h, the “Cmax of HM in rat plasma” value [2, 14] was 4.8 ± 1.4 ng/mL and the “Tmax of HM in rat plasma” value [2, 14] was 6.0 h. For the same molecule, the “Rate of HM formation, umols/h/umol trypsin” value ([3]; no trypsin inhibitor, (n = 1)) was 322 umols/h/umol trypsin and the “Rate of HM formation, umols/h/umol trypsin Average ± sd” value ([3]; with trypsin inhibitor 3,089 uM Compound 109) was 3.27 ± 1.87 umols/h/umol trypsin.

In the case of `COc1ccc2c3c1O[C@H]1C(OC(=O)N(C)CCNC(=O)[C@H](CCCNC(=N)N)NC(=O)CC(=O)O)=CC[C@@]4(O)[C@@H](C2)N(C)CC[C@]314` [Compound KC-3, N-{(S)-4-guanidino-1-[2-(methyl-[(5R,9R,13S,14S)-4,5a-epoxy-6,7-didehydro-14-hydroxy-3-methoxy-17-methylmorphinan-6-oxy]carbonyl-amino)-ethylcarbamoyl]-butyl}-malonamic acid], the “dose tolerated by rats” value [4] is reported as 97 µmol/kg, the “time to recover to normal activity” value ([4]; KC-3 97 μmol/kg) is reported as at most 2 min and the “conversion of Compound KC-3 to oxycodone on exposure to household chemicals and enzyme preparations” value [5] is reported as “less than 10%”. The “Compound conc. in CSF” value [6] was 34.1 ng/mL, the “Compound conc. in Plasma, ng/mL” value [6] was 59,225 ng/mL and the Plasma/CSF partitioning coefficient [6] was 1,737. For the same molecule, the “Rate of oxycodone formation, umol/h/BAEE U Average ± sd” value [7] was 0.0684 ± 0.0009 umol/h/BAEE U.

For `CCOC(=O)N1CCN(C(=O)[C@H](CCCNC(=N)N)NS(=O)(=O)c2ccc3ccccc3c2)CC1` [Compound 101, (S)-ethyl 4-(5-guanidino-2-(naphthalene-2-sulfonamido)pentanoyl)piperazine-1-carboxylate], the “effect of Compound 101 on release of hydromorphone from Compound PC-3” value ([8]; rat PO, PC-3 20 mg/kg with Compound 101 10 mg/kg) was “attenuates Compound PC-3's ability to release hydromorphone, both with respect to suppressing Cmax and delaying Tmax” and the “effect of Compound 101 on release of hydromorphone from Compound PC-4” value ([2]; rat PO, PC-4 20 mg/kg with Compound 101 10 mg/kg) was “attenuates Compound PC-4's ability to release hydromorphone, both with respect to suppressing Cmax and delaying Tmax”.

For `CC(=O)N[C@@H](CCCCN)C(=O)NCCN(C)C(=O)Oc1ccc2c3c1OC1C(=O)CCC4C(C2)N(C)CCC314` (stereo partly drawn) [Compound PC-3, (S)-2-Acetylamino-6-amino-hexanoic acid (2-methylamino-ethyl)-amide hydromorphone ester], the “Cmax of hydromorphone in rat plasma” value ([9]; SBTI 500 mg/kg) was 2.3 ± 1.7 ng/mL, the “Tmax of hydromorphone in rat plasma” value ([9]; SBTI 500 mg/kg) was 7.3 h and the “Cmax of hydromorphone in rat plasma” value ([9]; no inhibitor) was 9.0 ± 3.1 ng/mL. For the same molecule, the “Tmax of hydromorphone in rat plasma” value ([9]; no inhibitor) was 2.3 h, the “Cmax of HM in rat plasma” value [8, 15] was 3.8 ± 2.9 ng/mL and the “Tmax of HM in rat plasma” value [8, 15] was 3.5 h.

For `CC(=O)NC(CCCNC(=N)N)C(=O)NCCN(C)C(=O)Oc1ccc2c3c1OC1C(=O)CCC4C(C2)N(C)CCC314` (centres unmarked) [Compound PC-1, hydromorphone 3-(N-methyl-N-(2-N′-acetylarginylamino)) ethylcarbamate], the “Maximum concentration (Cmax) of hydromorphone in rat blood” value (“Maximum concentration … in rat blood” for short) ([10]; SBTI 0 mg/kg) was 16.5 ± 5.3 ng/mL, the “Maximum concentration … in rat blood” value ([10]; SBTI 10 mg/kg) was 8.9 ± 1.8 ng/mL and the “Maximum concentration … in rat blood” value ([10]; SBTI 100 mg/kg) was 6.0 ± 4.0 ng/mL. For the same molecule, the “Maximum concentration … in rat blood” value ([10]; SBTI 500 mg/kg, lower limit of quantitation 5 ng/mL) was under 5 ng/mL, the “Maximum concentration … in rat blood” value ([10]; SBTI 1000 mg/kg, lower limit of quantitation 5 ng/mL) was under 5 ng/mL and the “Maximum concentration (Cmax) of hydromorphone in rat plasma” value (from here on “Maximum concentration … in rat plasma”) ([11]; OVA 0 mg/kg, SBTI 0 mg/kg) was 13.3 ± 3.7 ng/mL. For the same molecule, the “Maximum concentration … in rat plasma” value ([11]; OVA 20 mg/kg, SBTI 0 mg/kg) was 11.0 ± 5.4 ng/mL, the “Maximum concentration … in rat plasma” value ([11]; OVA 100 mg/kg, SBTI 0 mg/kg) was 9.7 ± 3.1 ng/mL and the “Maximum concentration … in rat plasma” value ([11]; OVA 500 mg/kg, SBTI 0 mg/kg) was 11.6 ± 2.5 ng/mL. For the same molecule, the “Maximum concentration … in rat plasma” value ([11]; OVA 500 mg/kg, SBTI 500 mg/kg) was 1.9 ± 0.9 ng/mL, the “Maximum concentration … in rat plasma” value ([11]; OVA 1000 mg/kg, SBTI 0 mg/kg) was 10.3 ± 3.5 ng/mL and the “plasma Tmax of hydromorphone” value ([11]; rat PO, PC-1 20 mg/kg alone) was 2.3 h. The “plasma Tmax of hydromorphone” value ([11]; rat PO, PC-1 20 mg/kg with 500 mg/kg OVA and 500 mg/kg SBTI) was 8.0 h, the “Maximum concentration … in rat blood” value ([12]; BBSI 0 mg/kg, n = 4) was 16.5 ± 5.3 ng/mL and the “Maximum concentration … in rat blood” value ([12]; BBSI 100 mg/kg, n = 3 (3 of the 4 rats)) was 10.6 ± 5.9 ng/mL. For the same molecule, the “Maximum concentration … in rat blood” value ([12]; BBSI 100 mg/kg, n = 4) was 18.7 ± 17.0 ng/mL, the “Cmax of hydromorphone of the rat not included in n = 3 analysis” value ([12]; BBSI 100 mg/kg, one rat) was 43 ng/mL and the “range of Cmax of hydromorphone of the other rats” value ([12]; rat PO, BBSI 100 mg/kg, the 3 rats of the n = 3 analysis) was 6.8 to 17 ng/mL.

In the case of `CN(CCNC(=O)[C@@H](N)CCCNC(=N)N)C(=O)Oc1ccc2c3c1OC1C(=O)CCC4C(C2)N(C)CCC314` (stereo partly drawn) [Compound PC-2, [2-((S)-2-amino-5-guanidino-pentanoylamino)-ethyl]-methyl-carbamic acid hydromorphyl ester], the “Cmax of hydromorphone in rat plasma” value ([13]; SBTI 0 mg/kg) is reported as 14.2 ± 2.6 ng/mL and the “Cmax of hydromorphone in rat plasma” value ([13]; SBTI 500 mg/kg) is reported as 7.3 ± 3.5 ng/mL.

B1: SBTI: trypsin inhibitor from Glycine max (soybean) (Catalog No. 93620, ˜10,000 units per mg, Sigma-Aldrich) (protein, UniProt P01070 25-205, looked up)
Trypsin inhibitor A: DFVLDNEGNPLENGGTYYILSDITAFGGIRAAPTGNERCPLTVVQSRNELDKGIGTIISSPYRIRFIAEGHPLSLKFDSFAVIMLCVGIPTEWSVVEDLPEGPAVKIGENKDAMDGWFRLERVSDDEFNNYKLVFCPQQAEDDKCGDIGISIDHDDGTRRLVVSKNKPLVVQFQKLDKESL
With B1 the “effect of SBTI on release of hydromorphone from Compound PC-1” value ([10]; rat PO, PC-1 20 mg/kg with SBTI 10 to 1000 mg/kg) was “attenuates Compound PC-1's ability to release hydromorphone in a dose-dependent manner”, the “effect of SBTI on release of hydromorphone from Compound PC-2” value ([13]; rat PO, PC-2 20 mg/kg with SBTI 500 mg/kg) was “attenuates Compound PC-2's ability to release hydromorphone, both with respect to suppressing Cmax and delaying Tmax” and the “effect of SBTI on release of hydromorphone from Compound PC-3” value ([9]; rat PO, PC-3 20 mg/kg with SBTI 500 mg/kg) was “attenuates Compound PC-3's ability to release hydromorphone, both with respect to suppressing Cmax and delaying Tmax”. For the same molecule, the “effect of SBTI on release of hydromorphone from Compound PC-4” value ([1]; rat PO, PC-4 20 mg/kg with SBTI 500 mg/kg) was “attenuates Compound PC-4's ability to release hydromorphone, at least with respect to delaying Tmax”, the IC50 (trypsin; Table 7) was 270 nM and the IC50 (trypsin; Table 20) was 270 nM.

B2: ovalbumin: Albumin from chicken egg white (Catalog No. A7641, Sigma-Aldrich), used as a non-trypsin inhibitor protein control (protein, UniProt P01012 2-386, looked up)
Ovalbumin: GSIGAASMEFCFDVFKELKVHHANENIFYCPIAIMSALAMVYLGAKDSTRTQINKVVRFDKLPGFGDSIEAQCGTSVNVHSSLRDILNQITKPNDVYSFSLASRLYAEERYPILPEYLQCVKELYRGGLEPINFQTAADQARELINSWVESQTNGIIRNVLQPSSVDSQTAMVLVNAIVFKGLWEKAFKDEDTQAMPFRVTEQESKPVQMMYQIGLFRVASMASEKMKILELPFASGTMSMLVLLPDEVSGLEQLESIINFEKLTEWTSSNVMEERKIKVYLPRMKMEEKYNLTSVLMAMGITDVFSSSANLSGISSAESLKISQAVHAAHAEINEAGREVVGSAEAGVDAASVSEEFRADHPFLFCIKHIATNAVLFFGRCVSP
For B2, the “effect of ovalbumin on release of hydromorphone from Compound PC-1” value ([11]; rat PO, PC-1 20 mg/kg with OVA 20 to 1000 mg/kg) was “does not significantly affect Compound PC-1's ability to release hydromorphone”.
